“Also recorded” adds a separate entry of the source.
Assays:
[1] = tested on: SBI mice; assay: Sleep-wake cycle LFP power spectra in secondary-blast injury (SBI) mice with sodium oxybate injection; assay type: in vivo
Procedure: FIGS. 7A-7B. Effects of sodium oxybate injection on the sleep-wake cycle of SBI mice. The top panels display the delta power during the dark (blue; daytime) and light (yellow; sleep time) within 24 hours in (A) Non-REM, or (B) Wake mice. The pink vertical lines represent the time in which animals received an intraperitoneal injection of sodium oxybate (SO; 400 mg/Kg) diluted in saline. The bottom panels show the LFP power spectra obtained from sleep periods and wake periods with and without sodium oxybate. In (A), the dark blue line represents NREM sleep without sodium oxybate administration and the red line represents NREM sleep with sodium oxybate administration. In (B), the dark blue line represents Wake without sodium oxybate administration during prior sleep and the red line represents Wake with sodium oxybate administration during prior sleep. Application of sodium oxybate during the night results in elevation of delta (1-5 Hz) LFP power and increases during the subsequent wakeful period in beta (15-30 Hz) and gamma (>30 Hz) LFP. Importantly, consistent with our theory because of the short half-life of sodium oxybate these changes in wakeful LFP power reflect alteration of cortical neuronal properties linked to the increased delta during sleep induced by sodium oxybate.
The inventors inflicted a secondary-blast injury (SBI) to mice targeting the anterior forebrain mesocircuit, which corresponds to the frontal/prefrontalcortical-pallidal thalamocortical loop systems.
The inventors examined animals' sleep-wake cycle before, after the SBI, and while injecting sodium oxybate (400 mg/Kg; FIG. 7A-7B). Local field potentials (LFPs) were recorded from the frontal area and neck-EMG activity to detect and extract the different sleep/wake cycle components—Non-REM, REM, and Wake state. The inventors examined the whole range of biological LFP frequencies before and after sodium oxybate injection by calculating power spectral density using Thomson's multi-taper method implemented using the Chronux tool box from MATLAB.

[2] = cited from earlier work
[3] = FIG. 7 legend, intraperitoneal 400 mg/Kg during prior sleep
[4] = wake state post-sodium oxybate injection (400 mg/Kg), 400 mg/kg

For `O=C(O)CCCO` [sodium oxybate], the “beta (15-30 Hz) LFP power during the subsequent wakeful period” value [1, 3] was “increases”, the “gamma (>30 Hz) LFP power during the subsequent wakeful period” value [1, 3] was “increases” and the “delta (1-5 Hz) LFP power” value ([1]; FIG. 7 legend, intraperitoneal 400 mg/Kg in saline, application during the night, NREM sleep) was “elevation”. The “delta oscillations (1-4 Hz) LFP power in Non-REM” value ([1]; sodium oxybate 400 mg/Kg injected right before the sleep time (9 pm), frontal LFP) was “increase; also recorded: elevation”, the “beta (20-40 Hz) LFP power during the wake state” value [1, 4] was “higher; also recorded: increases” and the “gamma (>40 Hz) LFP power during the wake state” value [1, 4] was “higher; also recorded: increases”. The “persistence of the elevation of delta power during the wakeful period” value ([1]; wakeful period after night application of sodium oxybate) was “does not persist”, the “SWS (slow wave sleep)” value ([2]; dose-dependent) was “dose-dependent upregulation” and the alpha-delta sleep ([2]; in several conditions) was “suppress alpha-delta sleep”.

— patent publication US20230067194A1, “METHOD FOR TREATMENT OF ACQUIRED COGNITIVE DEFICITS” (CORNELL UNIVERSITY, priority 2020, published 2023)
